Test results published in paper PMC8113459, “Selective inhibition of cullin 3 neddylation through covalent targeting DCN1 protects mice from acetaminophen-induced liver toxicity” (Nature Communications, 2021).
Several values for one entry are separate records, joined by “and”; a condition that tells them apart may be missing. Identical values can stand only once.

Key:
[1] = target: T1, cellular DCN1 protein in U2OS cells (Homo sapiens, UniProt Q96GG9); experiment: Cellular thermal shift assay (CETSA), DCN1; assay type: cell-based; conditions: 1 h, 53 °C
T1 construct: endogenous in cells; host or cells: U2OS
Description: CETSA was performed as previously described. The U2OS cells (5 × 10^5 per sample) were treated with compounds or with DMSO for 1 h, washed with PBS for three times, and dissolved in 50 µL PBS supplemented with protease inhibitor, followed by heating at 53 °C in a Mastercycler gradient (Eppendorf, New York, USA). Treated cells were then subjected to snap-freezing in liquid nitrogen and thawed on ice for three cycles. The protein level of DCN1 and DCN3 in equal amount of the supernatant was examined by western blot methods. GAPDH was used as a control. Results are representative of three independent experiments.

mice = experiment: 14-day toxicity study in mice; assay type: in vivo, mouse; conditions: for whole animal: body weight of individual male mouse; for whole animal / AdrenalGlands / Brain / Epidimydes (paired) / Heart / KidneyL / KidneyR / Liver / Spleen / Testes (paired) / Thymus: in g (unit assumed); for AdrenalGlands / Brain / Epidimydes (paired) / Heart / KidneyL / KidneyR / Liver / Spleen / Testes (paired) / Thymus: organ weight of individual male mouse; for RelGonads / Relative KidneyL / RelativeHeart / RelativeKidneyR / RelativeLiver / RelativeSpleen / RelativeThymus / RelAdrenGl / RelBrain / RelEpid: organ weight relative to whole animal; for RelAdrenGl / RelBrain / RelEpid: in % (unit assumed)
Description: We evaluated DI-1859 for its potential toxicity in immunocompetent mice with daily, 50 mg/kg, intraperitoneal (IP) dosing for 14 consecutive days (Supplementary Table 3).
Supplementary Table 3. Overview Toxicity Study design DI-1859 study.
Group # # of Mice Drug Vol./ Test Article Treatment Diluent
(male/female) Route mouse dose Schedule

[2] = Clin Chem, individual male mouse, 50 mg/kg, 14 day, vehicle 20% PCP, listed as DI-1589, 50 mg/kg, in U/L (unit assumed)
[3] = Hemavet Values, individual male mouse, 50 mg/kg, 14 day, vehicle 20% PCP, listed as DI-1589, 50 mg/kg
[4] = 50 mg/kg, 14 day, vehicle 20% PCP
[5] = 50 mg/kg, 14 day, vehicle 20% PCP, listed as DI-1589, 50 mg/kg
[6] = mice, 50 mg/kg IP daily for 14 days
[7] = mice, 50 mg/kg IP qD(1-14), mean ± s.d., n=5
[8] = individual male mouse, 50 mg/kg, 14 day
[9] = individual male mouse, 50 mg/kg, 14 day, listed as DI-1589, 50 mg/kg
[10] = serum, mice, 50 mg/kg IP qD(1-14), mean ± s.d., n=5

T1 sequence (Q96GG9 whole entry): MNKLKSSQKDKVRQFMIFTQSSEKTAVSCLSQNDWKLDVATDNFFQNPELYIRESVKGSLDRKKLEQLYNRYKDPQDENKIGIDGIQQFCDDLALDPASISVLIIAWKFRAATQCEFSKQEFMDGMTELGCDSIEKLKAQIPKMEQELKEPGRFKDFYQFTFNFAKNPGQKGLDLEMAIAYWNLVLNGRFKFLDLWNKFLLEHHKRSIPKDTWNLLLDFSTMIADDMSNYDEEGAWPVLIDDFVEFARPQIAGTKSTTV

## C=C(CN1CCOCC1)C(=O)NC[C@@H](NC(=O)[C@H](Cc1nc2ccc(C(C)C)cc2s1)NC(=O)CC)C1CCCCC1 [DI-1548]
[1]
  concentration as low as which the thermal stability of cellular DCN1 protein is enhanced: ≤ 0.3 nM
  times more potent than DI-591 and DI-1548DD in enhancing the thermal stability of cellular DCN1 protein: > 1000 times

## C=C(CN(C)C)C(=O)NC[C@@H](NC(=O)[C@H](Cc1nc2ccc(C(C)C)cc2s1)NC(=O)CC)C1CCCCC1 [DI-1859]
mice; 50 mg/kg IP qD(1-14), Treat Day 2
  % wt change (average): -3.1%
mice; 50 mg/kg IP qD(1-14), Treat Day 3
  % wt change (average): -3.0%
mice; 50 mg/kg IP qD(1-14), Treat Day 3, n=5
  ave. wgt. (mouse body weight): 25.5 gm
mice; 50 mg/kg IP qD(1-14), Treat Day 4
  % wt change (average): -3.1%
mice; 50 mg/kg IP qD(1-14), Treat Day 4, n=5
  ave. wgt. (mouse body weight): 25.5 gm
mice; 50 mg/kg IP qD(1-14), Treat Day 5
  % wt change (average): -0.9%
mice; 50 mg/kg IP qD(1-14), Treat Day 5, n=5
  ave. wgt. (mouse body weight): 26.0 gm
mice; 50 mg/kg IP qD(1-14), Treat Day 6
  % wt change (average): -1.3%
mice; 50 mg/kg IP qD(1-14), Treat Day 6, n=5
  ave. wgt. (mouse body weight): 25.9 gm
mice; 50 mg/kg IP qD(1-14), Treat Day 7
  % wt change (average): -1.6%
mice; 50 mg/kg IP qD(1-14), Treat Day 7, n=5
  ave. wgt. (mouse body weight): 25.8 gm
mice; 50 mg/kg IP qD(1-14), Treat Day 8
  % wt change (average): -2.1%
mice; 50 mg/kg IP qD(1-14), Treat Day 8, n=5
  ave. wgt. (mouse body weight): 25.7 gm
mice; 50 mg/kg IP qD(1-14), Treat Day 9
  % wt change (average): -1.9%
mice; 50 mg/kg IP qD(1-14), Treat Day 9, n=5
  ave. wgt. (mouse body weight): 25.8 gm
mice; 50 mg/kg IP qD(1-14), Treat Day 10
  % wt change (average): -0.8%
mice; 50 mg/kg IP qD(1-14), Treat Day 10, n=5
  ave. wgt. (mouse body weight): 26.0 gm
mice; 50 mg/kg IP qD(1-14), Treat Day 11
  % wt change (average): -3.6%
mice; 50 mg/kg IP qD(1-14), Treat Day 11, n=5
  ave. wgt. (mouse body weight): 25.3 gm
mice; 50 mg/kg IP qD(1-14), Treat Day 12
  % wt change (average): -2.5%
mice; 50 mg/kg IP qD(1-14), Treat Day 12, n=5
  ave. wgt. (mouse body weight): 25.6 gm
mice; 50 mg/kg IP qD(1-14), Treat Day 13
  % wt change (average): -2.7%
mice; 50 mg/kg IP qD(1-14), Treat Day 13, n=5
  ave. wgt. (mouse body weight): 25.6 gm
mice; 50 mg/kg IP qD(1-14), Treat Day 14
  % wt change (average): -4.9%
mice; 50 mg/kg IP qD(1-14), Treat Day 14, n=5
  ave. wgt. (mouse body weight): 25.0 gm
mice; [2]
  ALT: 34 and 26 and 24 and 31
  AST: 57 and 46 and 61 and 55 and 35
mice; Hemavet Values, individual male mouse, 50 mg/kg, 14 day, vehicle 20% PCP
  PDW: 0%
mice; [3]
  BA#: 0.01 K/uL and 0.09 K/uL and 0.05 K/uL and 0.13 K/uL
  BA%: 0.11% and 0.74% and 1.42% and 0.22% and 1.34%
  EO#: 0.05 K/uL and 0.22 K/uL and 0.08 K/uL and 0.02 K/uL and 0.52 K/uL
  EO%: 0.65% and 1.86% and 2.37% and 0.68% and 5.39%
  HB: 12.9 g/dL and 12.5 g/dL and 10.2 g/dL and 11.4 g/dL and 11.5 g/dL
  HCT: 37.7% and 38.6% and 31.1% and 36.4% and 34.1%
  LY#: 5.23 K/uL and 7.93 K/uL and 2.4 K/uL and 1.63 K/uL and 5.65 K/uL
  LY%: 69.39% and 68.59% and 72.26% and 71.36% and 58.57%
  MCH: 14.5 pg and 13.7 pg and 14.3 pg
  MCHC: 34.2 g/dL and 32.4 g/dL and 32.8 g/dL and 31.3 g/dL and 33.7 g/dL
  MCV: 42.5 fL and 42.4 fL and 41.9 fL and 43.7 fL
  MO#: 0.42 K/uL and 0.63 K/uL and 0.21 K/uL and 0.22 K/uL
  MO%: 5.58% and 5.49% and 6.31% and 9.5% and 6.52%
  MPV: 4.9 fL and 4.7 fL and 5.2 fL and 5.7 fL and 4.8 fL
  NE#: 1.83 K/uL and 2.69 K/uL and 0.59 K/uL and 0.42 K/uL and 2.72 K/uL
  NE%: 24.26% and 23.31% and 17.63% and 18.24% and 28.19%
  PLT: 900 K/uL and 866 K/uL and 228 K/uL and 177 K/uL and 757 K/uL
  RBC: 8.88 M/uL and 9.11 M/uL and 7.43 M/uL and 8.33 M/uL and 8.03 M/uL
  RDW: 17.1% and 16.5% and 17.2% and 17.7%
  WBC: 7.54 K/uL and 11.56 K/uL and 3.32 K/uL and 2.28 K/uL and 9.64 K/uL
mice; [4]
  whole animal: 24.600
  AdrenalGlands: 0.007
  Brain: 0.448
  Epidimydes (paired): 0.106
  Heart: 0.104
  KidneyL: 0.187
  KidneyR: 0.192
  Liver: 1.500
  Spleen: 0.075
  Testes (paired): 0.230
  Thymus: 0.025
mice; [5]
  whole animal: 25.300 and 25.200 and 26.400 and 27.400
  AdrenalGlands: 0.005 and 0.010
  Brain: 0.465 and 0.450 and 0.445 and 0.462
  Epidimydes (paired): 0.091 and 0.076 and 0.086 and 0.084
  Heart: 0.120 and 0.111 and 0.127 and 0.122
  KidneyL: 0.188 and 0.165 and 0.173 and 0.199
  KidneyR: 0.201 and 0.208 and 0.193 and 0.207
  Liver: 1.540 and 1.722 and 1.680
  Spleen: 0.063 and 0.074 and 0.062 and 0.093
  Testes (paired): 0.224 and 0.227 and 0.237 and 0.193
  Thymus: 0.088 and 0.032 and 0.029 and 0.028
mice; [6]
  alterations in hematologic parameters: no meaningful alterations
  changes in body weights or organ weights: no changes
  tolerability: well tolerated
mice; [7]
  Absolute organ weight, Adrenal glands (paired): 0.006 ± 0.002 g
  Absolute organ weight, Brain: 0.454 ± 0.009 g
  Absolute organ weight, Epididymis (paired): 0.089 ± 0.011 g
  Absolute organ weight, Heart: 0.117 ± 0.009 g
  Absolute organ weight, L kidney: 0.182 ± 0.013 g
  Absolute organ weight, Liver: 1.596 ± 0.098 g
  Absolute organ weight, R kidney: 0.200 ± 0.007 g
  Absolute organ weight, Spleen: 0.073 ± 0.013 g
  Absolute organ weight, Testes (paired): 0.222 ± 0.017 g
  Absolute organ weight, Thymus: 0.040 ± 0.027 g
  Body weights: 25.78 ± 1.11 g
  Hematocrit: 35.58 ± 3.02%
  Hemoglobin: 11.70 ± 1.06 g/dL
  MCH: 13.98 ± 0.39 pg
  MCHC: 32.88 ± 1.13 g/dL
  MCV: 42.60 ± 0.66 fL
  MPV: 5.06 ± 0.40 fL
  Platelets: 585.6 ± 354.1 10e3/uL
  RBC: 8.36 ± 0.67 10e6/ul
  RDW: 17.12 ± 0.43%
  Relative organ weight, Adrenal glands (paired): 0.02 ± 0.01 % of body weight
  Relative organ weight, Brain: 1.76 ± 0.07 % of body weight
  Relative organ weight, Epididymis (paired): 0.35 ± 0.05 % of body weight
  Relative organ weight, Heart: 0.45 ± 0.02 % of body weight
  Relative organ weight, L kidney: 0.71 ± 0.05 % of body weight
  Relative organ weight, Liver: 6.19 ± 0.19 % of body weight
  Relative organ weight, R kidney: 0.78 ± 0.04 % of body weight
  Relative organ weight, Spleen: 0.28 ± 0.04 % of body weight
  Relative organ weight, Testes (paired): 0.86 ± 0.09 % of body weight
  Relative organ weight, Thymus: 0.16 ± 0.11 % of body weight
  WBC: 6.868 ± 3.993 10e3/ul
mice; mice, 50 mg/kg IP, 14 days
  Microscopic finding, Epididymis: Sperm granuloma: 0/10
  Microscopic finding, Liver: Necrosis, random: 0/5
  Microscopic findings, Adrenal Glands: 0/8
  Microscopic findings, Cecum: 0/5
  Microscopic findings, Colon: 0/5
  Microscopic findings, Heart: 0/5
  Microscopic findings, Kidneys: 0/10
  Microscopic findings, Lung: 0/5
  Microscopic findings, Mesenteric lymph node: 0/5
  Microscopic findings, Pancreas: 0/5
  Microscopic findings, Small intestine: 0/5
  Microscopic findings, Spleen: 0/5
  Microscopic findings, Sternal bone marrow: 0/5
  Microscopic findings, Stomach: 0/5
  Microscopic findings, Thymus: 0/5
  Microscopic findings, Urinary bladder: 0/5
mice; [8]
  RelGonads: 0.935
  Relative KidneyL: 0.760
  RelativeHeart: 0.423
  RelativeKidneyR: 0.780
  RelativeLiver: 6.098
  RelativeSpleen: 0.305
  RelativeThymus: 0.102
  RelAdrenGl: 0.028
  RelBrain: 1.821
  RelEpid: 0.431
mice; [9]
  RelGonads: 0.885 and 0.901 and 0.898 and 0.704
  Relative KidneyL: 0.743 and 0.655 and 0.726
  RelativeHeart: 0.474 and 0.440 and 0.481 and 0.445
  RelativeKidneyR: 0.794 and 0.825 and 0.731 and 0.755
  RelativeLiver: 6.087 and 6.111 and 6.523 and 6.131
  RelativeSpleen: 0.249 and 0.294 and 0.235 and 0.339
  RelativeThymus: 0.348 and 0.127 and 0.110
  RelAdrenGl: 0.020 and 0.019 and 0.037
  RelBrain: 1.838 and 1.786 and 1.686
  RelEpid: 0.360 and 0.302 and 0.326 and 0.307
mice; [10]
  ALT: 28.2 ± 4.1 U/L
  AST: 50.8 ± 10.4 U/L
